Row | SMILES | melting point [°C]
1 | O=C(CSC(=S)N1Cc2[nH]c3ccccc3c2CC1C(=O)O)c1ccccc1 (configuration not stated) | 116
2 | NCCSC(c1ccccc1)(c1ccccc1)c1ccccc1 | 142 to 143
3 | CCN1CCC=C(c2csc(N)n2)C1 | 116 to 120
4 | Cn1c(-c2cccs2)nnc1S(C)(=O)=O | 157 to 159
5 | CC1Cc2cc3c(cc2C(c2ccc([N+](=O)[O-])cc2)=NN1c1ncon1)OCO3 (configuration not stated) | 190 to 196
6 | Clc1cccc2c(CCN3CCCCC3)c(-c3ccccc3)[nH]c12 | 178 to 179
7 | O=C(c1cc(O)c(O)c([N+](=O)[O-])c1)c1cccs1 | 155 to 157
8 | NC(=O)c1sc2nc(N3CCC(NCC(O)c4ccccn4)CC3)cc(C(F)(F)F)c2c1N (configuration not stated) | 165 to 167
9 | Fc1ccc(C(c2ccccc2)(c2ccccc2F)n2ccnc2)cc1 (configuration not stated) | 164 to 167
10 | N#Cc1cc2cccnc2nc1Cl | 273
11 | Cc1ccc(C2=NNC(=O)CC2)cc1O | 216 to 218
12 | COc1cnnc(Cl)c1 | 98 to 100
13 | CONc1nc(N)nc2c1ncn2[C@@H]1C[C@H](CO)[C@@H](O)[C@H]1O | 106 to 110
14 | OC/C(=C(\CO)c1ccccc1)c1ccccc1 | 79
15 | Nc1nc(NC2Cc3ccccc3N(C(=O)c3ccccc3)C2)c2cn[nH]c2n1 (configuration not stated) | 155 to 164
16 | O=C1CCC2=C(CCc3cc(Br)ccc32)N1 | 227 to 228
17 | CC(=O)Oc1ccc(-c2ccc(C=C(Br)Br)s2)cc1 | 115 to 116
18 | OCC12CC3CC(CC(C3)C1Br)C2 (configuration not stated) | 138
19 | O=C(O)c1c2n(c3cc(N4CCOCC4)c(F)cc3c1=O)CS2 | 244 to 248
20 | CN1CCN(CCCNc2ncc3c(n2)-c2ccccc2C(c2ccc(Cl)c(Cl)c2)C3)CC1 (configuration not stated) | 135 to 136
21 | c1cc(COc2ccc3ccccc3c2)cc(-c2nnn[nH]2)c1 | 200 to 202
22 | CCCCCn1ncc(C#N)c1N | 143 to 144

Row | SMILES | melting point [°C]
23 | O=S1CCNCc2c(Cl)cccc21 (configuration not stated) | 125 to 126
24 | CSc1c(O[C@H]2CC[C@@H](N(C)C)CC2)ccc2[nH]ncc12 | 139 to 140
25 | CCCn1c(COCC)nc2c(N)nc3ccc(OCCNC(=O)N4CCOCC4)cc3c21 | 203 to 208
26 | COc1cc2c(cc1OCc1ccccc1)CCN(Cc1ccccc1)C2 | 97 to 98
27 | CC(=O)n1c(=NC(F)(F)F)oc2ccccc21 | 140 to 143
28 | Cn1ncnc1COc1nc2c(cc1-c1ccccc1)nnn2-c1ccccc1 | 153 to 156
29 | Cc1cc(N)ccc1N1CCC(N2CCOCC2)CC1 | 199 to 200
30 | O=CC12CC(c3ccccc31)c1ccccc12 | 102
31 | O=C(C(=O)c1cccc(C(=O)C(=O)c2ccc(Oc3ccc(Br)cc3)cc2)c1)c1ccc(Oc2ccc(Br)cc2)cc1 | 120 to 122
32 | CN1CCc2c(c3ccccc3n2CCC#N)C1 | 108 to 110
33 | CN1C2CCC1CC(c1n[nH]c3cc(F)ccc13)C2 (configuration not stated) | 235 to 236
34 | OCC1OC(c2ccc(F)c(Cc3ccc(-c4nccs4)s3)c2)C(O)C(O)C1O (configuration not stated) | 162
35 | C#CCn1c(C)c(CO)sc1=O | 62
36 | CC(Cc1c[nH]c2ccccc12)(NC(=O)OC1C2CC3CC(C2)CC1C3)C(=O)O (configuration not stated) | 210 to 215
37 | CC(C)(C)c1nc(-c2nn(-c3ccc(F)cc3F)c3c2C2CCC3C2)n[nH]1 (configuration not stated) | 268 to 269
38 | O=C(SCCC(=O)N1c2ccccc2CCC1C(=O)O)c1ccccc1 (configuration not stated) | 99 to 101
39 | CN(C(=S)SC(C[N+](=O)[O-])c1ccccc1)c1ccccc1 (configuration not stated) | 111 to 116
40 | COc1ccc(C2NC(C(=O)O)CS2)cc1 (configuration not stated) | 150 to 151
41 | Clc1cc2nc(Br)c(Br)nc2cc1Cl | 169 to 170
42 | Nc1nc2ccccc2c2c1ncn2CCCCCCCCNC(=O)c1ccccc1 | 133 to 137
43 | N=C(N[N+](=O)[O-])N1CCCC1 | 188 to 191

Other lines, results leading:

Row | melting point [°C] | SMILES
44 | 146 to 148 | CCCNC(=O)CSc1nc(Cl)cc(Nc2cccc(C)c2C)n1
45 | 97 to 99 | COC(=O)/C=C/C=C(/c1ccc(OC)cc1)c1cccs1
46 | 186 to 188 | CC(=O)NC[C@H]1CN(c2ccc(N3CCC(n4cc(C(F)F)nn4)CC3)c(F)c2)C(=O)O1
47 | 168 to 170 | Cc1ccccc1Cn1cc(-c2cn(C3CC(O)C(CO)O3)c(=O)[nH]c2=O)nn1 (configuration not stated)
48 | 189 to 192 | COc1cc(C(=O)c2ccc([N+](=O)[O-])cc2)c(CC(=O)O)cc1Br
49 | 140 | NC(=O)c1cc(OCCNCc2ccccc2)ccc1O
50 | 102 to 103 | COC(=O)c1ccc2c(c1)CC(=O)O2
51 | 240 to 248 | Cc1ccc2c(c1)nnn2C1(c2ccccc2)OC(=O)c2cccc([N+](=O)[O-])c21 (configuration not stated)
52 | 56 to 59 | C=CCc1ccc(C[C@H](NC(=O)OC(C)(C)C)C(=O)OC)cc1
53 | 55 to 57 | CS(=O)(=O)c1ccc(-c2cnn(CC(F)(F)F)c(=O)c2-c2ccc(Cl)cc2)cc1
54 | 197 to 198 | COCCNS(=O)(=O)c1cccc(Nc2nccc(-c3sc(C)nc3C)n2)c1
55 | 270 to 272 | CNC(=NC#N)NCc1c(C)cc(C)c(CNC(=NC#N)NC)c1C
56 | 162 | Cc1cc(Oc2ccc(-c3ccn(CC4CC4)c(=O)c3C(F)(F)F)cc2F)cc(C)n1
57 | 262 to 263 | COc1ccccc1C1(Cl)C(=O)Nc2ccc(C)c(Cl)c21 (configuration not stated)
58 | 118 to 120 | O=C(O)Cc1ccc(C2=CCCCC2)cc1
59 | 210 | COC(=O)CCCC=C1SC(=S)N(N=c2sc3ccccc3s2)C1=O
60 | 160 to 164 | Cc1cc(C(C)(C)C)cc(C)c1C(=O)O
61 | 193 to 194 | Cc1c(Cc2ccc(C(C)C)cc2)c2c(c(C)c1NC(=O)CC(C)(C)C)C(=O)C(C)(C)O2
62 | 142 | COC(=O)CCCNC1(c2ccccc2Cl)C(=O)Nc2ccc(Cl)cc21 (configuration not stated)
63 | 193 to 194 | COc1cccc([C@H]2O[C@H](CC#N)C(=O)N(CC(C)(C)C)c3ccc(Cl)cc32)c1OC

Row | melting point [°C] | SMILES
64 | 128 | O=C(CCl)NC(c1ccc(F)cc1)c1ccc(F)cc1
65 | 169 to 170 | CCCc1nc2c(C)cccc2n1Cc1ccc(-c2ccccc2-c2nnn[nH]2)nc1
66 | 184 | COC(=O)c1nn(Cc2cccc(OC)c2)c2c1CCc1cc(OCc3cncnc3)ccc1-2
67 | 120 to 121 | Cc1oc(-c2ccccc2)nc1COc1ccc(/C=C/C=C/C#N)cc1
68 | 41 to 43 | COC(=O)c1ccc(SC)c(OC(C)C)c1
69 | > 260 | Cc1c(CO)c(Cl)nc2ccccc12
70 | 96.8 to 102 | CCCCc1nc(C)c(CC(=S)N(C)C)c(=O)n1Cc1ccc(-c2ccccc2-c2nnn[nH]2)cc1
71 | > 250 | CC1CC(=O)NN=C1c1ccc(-c2ccc(=O)[nH]n2)cc1 (configuration not stated)
72 | 173 to 175 | CCS(=O)(=O)CCC(=O)NNC(=O)N1Cc2cc(OC)ccc2Oc2ccc(Cl)cc21
73 | 130 to 132 | C[C@@H](n1cnc2cc(NC(=O)C(F)(F)F)c(F)cc2c1=O)[C@](O)(Cn1cncn1)c1ccc(F)cc1F
74 | 131 to 133 | CC(C)(c1ccc2c(=O)c3ccccc3sc2c1)[N+](=O)[O-]
75 | 220 to 222 | CC(=O)N1CCN(CC(=O)Nc2nc(-c3ccccc3)c(-c3ccc(=O)n(C(C)C)n3)s2)CC1
76 | 85 to 95 | Cc1cc(OCCNC(=O)C2Cc3ccccc3N2S(=O)(=O)c2ccc(-c3ccccc3C(F)(F)F)cc2)ccc1CC(=O)O (configuration not stated)
77 | 311 to 313 | CC(C)NC1=NS(=O)(=O)c2cc([N+](=O)[O-])ccc2N1
78 | 131 | CC1=C(C(=O)OCc2ccccc2)C(c2ccccc2C(F)(F)F)c2c(ccnc2OC(C)C)N1 (configuration not stated)
79 | 110 to 111 | COc1cc(OC)cc(N(C)S(=O)(=O)c2ccc(C)cc2)c1
80 | 220 to 222 | Cc1cccc(Nn2c(-c3ccccc3)c(C(C)C)[nH]c2=S)c1
81 | 161 to 162 | CCC#CC1(C(F)(F)F)OC(=O)Nc2ccc(OC)cc21 (configuration not stated)
82 | 123 to 124 | CC(C)Oc1ccc2c(c1)Cc1ccccc1C2=O
83 | 140 to 141 | CNC(=O)N1Cc2ccccc2CCC1=O

Row | melting point [°C] | SMILES
84 | 75 to 76 | CCC(CC)(CC(=O)Nc1cccc(OCc2ccc3ccc(C)cc3n2)c1)C(=O)O
85 | 195 | O=C1Cc2cc(NC(=O)C(=O)N3CCC(Cc4ccc(Cl)cc4)CC3)ccc2N1
86 | 176 to 177 | O=C(O)Cn1cccc(OCc2ccccc2)c1=O
87 | 141 to 142 | CC(C)c1oc(C=Cc2ccccc2)nc1C(=O)O
88 | 185 to 187 | COc1ccc(CCCC2OC(=O)NC2=O)cc1OCc1nc(-c2ccccc2)oc1C (configuration not stated)
89 | 127 to 129 | Cn1ccnc1CCNC(=O)c1ccccc1NS(=O)(=O)c1cccc(C(F)(F)F)c1
90 | 250 to 252 | COc1ccc2c(c1)S(=O)(=O)c1ccccc1C(=S)N2
91 | 180 to 182 | CC(C)(C)C1=CC(c2cccc([N+](=O)[O-])c2)C2=C(CCCC2=O)N1 (configuration not stated)
92 | 107 to 108 | CNC(=O)[C@@H](N[C@@H](C)c1ccccc1)C(C)(C)C
93 | 77 to 80 | CCOC(=O)[C@@H](NS(=O)(=O)c1ccc(N2CCC(=O)CC2)cc1)C(C)C
94 | 153 to 154 | Cc1c(C)c2c(c(C)c1O)CCC(C)(C(=O)N1CCC(c3ccc(N)cc3)CC1)O2 (configuration not stated)
95 | 216 to 219 | C[C@@H]1Cc2cc3c(cc2C(c2ccc(Cl)cc2)=NN1C1=NCCS1)OCO3
96 | 98 to 100 | CCOC(=O)c1ccccc1-n1nnnc1C
97 | 121 | Cc1nc(N(C)c2ccccc2)n2ncc(C(=O)c3ccccc3)c2n1
98 | 88 | Cc1cc(-n2ccnc2)c2cccc(OCc3c(Cl)ccc(S(=O)(=O)N4CCC[C@H]4C(=O)N4CCN(c5ccccc5)CC4)c3Cl)c2n1
99 | 86.5 | O=C1CCCN1c1cccc(-c2ccc(CC34CCCN3C(=O)N(c3cc(Cl)cc(Cl)c3)C4=O)cc2)c1 (configuration not stated)
100 | 212 to 215 | CCC(=O)Oc1ccc2nc(NC(=O)Nc3ccccc3)sc2c1
101 | 162 to 164 | Cc1nc(N2CCCC(Cc3ccccc3)C2=O)sc1C(=O)NCc1ccccc1 (configuration not stated)
102 | 236 to 238 | COC(=O)c1cc2n(n1)-c1ccc(Cl)cc1C(c1ccccc1)NC2=O (configuration not stated)
